Drawing on PubChem BioAssay (NCI), this text covers TGI and GI50 for 9 compounds.

SMILES strings stand for the structures. Where “and” joins values, the source holds several entries; their conditions need not be identical. Identical values can stand only once.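 A five-concentration, 48-hour dose response in 96-well plates underlies each endpoint, interpolated linearly between surrounding concentrations. Here, GI50 denotes the concentration required for 50% inhibition of growth. The concentration for full growth arrest is given as TGI.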

Holding throughout (test): growth of human tumour cells (NCI), 48 h
In assay [1] the test system is EKVX NSCLC.
Assay [2] has as its system NCI-H460 lung.
The subject of assay [3] is UO-31 renal.
Assay [4] deals with A498 renal.
The test system of assay [5] is SF-539 CNS.
Assay [6] deals with IGROV1 ovarian.
Assay [7] relates to MCF7 breast.
Assay [8] has as its system OVCAR-3 ovarian.
Assay [9] relates to OVCAR-5 ovarian.
Assay [10] deals with TK-10 renal.

As to `C=C1C(=O)OC2CC1C(OC(C)=O)C/C(C)=C/CC/C(C)=C\CCC2(C)O` (stereo not given), the TGI in [1] was 16 µM and 14 µM; in [2], 14.1 µM and 8.22 µM; in [3], 18.3 µM and 12.3 µM; in assay [4] it was 17.1 µM and 21.4 µM; in [5], 18.4 µM and 12.7 µM; in [6], 14.5 µM and 20.1 µM. In addition, the TGI in [7] was 16.2 µM and 26.3 µM; in assay [8], 21.1 µM and 51.2 µM; in [9] it was 46.3 µM and 30 µM; in [10], 12.4 µM and 16.1 µM. The GI50 in [6] is 3.34 µM and 6.68 µM.
Consider `O=C1C=CC(=O)N1c1ccc(I)cc1`, for which the TGI was 41.2 µM in assay [1]; above 86.3 µM in assay [2]; 38.5 µM in assay [3]; 39.2 µM in [4]; above 57.6 µM in assay [5]; above 67.3 µM in [6]. For the same compound, the TGI in assay [7] amounted to 45.3 µM; in [8], 52.7 µM; in [9], 47.6 µM; in [10] it was 30.3 µM.
On to `O=C(O)c1ccc(Oc2nc3ccccc3s2)cc1`, for which the TGI in assay [1], in assay [2], in assay [3], in assay [4], in [5] and in [6] was above 100 µM in each case. The TGI in [7], in [8], in assay [9] and in assay [10] was above 100 µM throughout.
For `c1ccc(-c2cn(-c3ccccc3)c(-c3ccccc3)n2)cc1`, the GI50 in assay [1] is 15.1 µM; in assay [2], 13.8 µM; in assay [3] it was 11 µM; in [4], 15.4 µM; in [5] it was 14.2 µM; in assay [6] it was 11.9 µM. Further, the GI50 in assay [7] was 1.59 µM; in [8], 6.38 µM; in assay [9], 19.8 µM; in [10], 14.7 µM. Also, the TGI in [1] was determined as 28.9 µM; in assay [2], 29.7 µM; in [3], 22.9 µM; in assay [4], 28.8 µM; in assay [5], 27.9 µM; in [6], 25.2 µM. Moreover, the TGI in assay [7] came to 5.76 µM; in assay [8] it was 18.6 µM; in assay [9] it was 39.7 µM; in assay [10], 30.9 µM.
For the compound `CCOC(=O)[C@@H](C)C[C@H](Cc1ccccc1)NC(=O)c1csc([C@@H](C[C@H](C(C)C)N(C)C(=O)[C@@H](NC(=O)[C@H]2C[C@H](O)CCN2C)C(C)C)OC(C)=O)n1`, the GI50 was 0.05 µM in assay [1]; 0.0063 µM in assay [2]; 0.647 µM in [3]; 0.00721 µM in assay [4]; 0.00452 µM in assay [5]; 0.00209 µM in assay [6]. The GI50 in assay [7] is below 0.00167 µM; in assay [8], below 0.00167 µM; in [9], 0.015 µM; in assay [10] it was 0.426 µM. In addition, the TGI in assay [1] is above 16.7 µM; in assay [2], above 16.7 µM; in [3], above 16.7 µM; in assay [4], 0.0879 µM; in assay [5], 0.0157 µM; in [6], above 16.7 µM. Further, the TGI in assay [7], in assay [9] and in [10] was above 16.7 µM each time.
As to `O=C(O)c1ccc(C(=O)O)c(C(=O)O)c1.[NH-]C1CCCCC1[NH-].[Pt+2]`, the GI50 in assay [1] is 29.1 µM; in assay [2], 0.889 µM; in assay [3] it was 4.22 µM; in assay [4], 6.28 µM; in [5] it was 4.29 µM; in assay [6] it was 4.57 µM. Besides, the GI50 in assay [7] was 2.3 µM; in [8], 8.64 µM; in assay [9], 6.32 µM; in assay [10], 25.6 µM. Also, the TGI stood at 90.8 µM in assay [1]; 19.1 µM in assay [2]; 26.5 µM in [3]; 45.1 µM in assay [4]; 43.5 µM in assay [5]; 44.6 µM in [6]. The TGI is 31.9 µM in assay [7], 39.9 µM in [8], 35.5 µM in assay [9] and 85.8 µM in assay [10].
Regarding `Cc1cc(=O)oc2cc(OC(=O)Nc3ccccc3)ccc12`, the TGI in assay [1], in assay [2], in assay [3], in assay [4], in assay [5] and in assay [6] was above 100 µM in each case. The TGI in assay [7], in [8], in assay [9] and in [10] was above 100 µM in each case.
Turning to `COc1cc2c(cc1OCCCCn1c(-c3cccs3)nc3ccccc31)N=C[C@@H]1CCCN1C2=O`, the GI50 was 3.36 µM in assay [1]; 1.55 µM in assay [2]; 1.23 µM in assay [3]; 1.68 µM in assay [4]; 1.72 µM in [5]; 0.754 µM in assay [6]. In addition, the GI50 is 0.66 µM in assay [7], 1.72 µM in assay [8], 3.27 µM in assay [9] and 2.09 µM in assay [10]. Moreover, the TGI in assay [1] worked out at 11.1 µM; in assay [2], 4.38 µM; in [3], 5.34 µM; in assay [4], 4.76 µM; in assay [5] it was 3.66 µM; in assay [6], 2.86 µM. Moreover, the TGI in [7] was 12.5 µM; in assay [8], 4.29 µM; in assay [9], 9.13 µM; in assay [10], 6.74 µM.
As for `NC(=O)CCc1ccccc1Oc1nccc(-c2c(-c3ccc(F)cc3)ncn2C2CCNCC2)n1`, the GI50 in [1], in [2], in assay [3], in [4], in [5] and in assay [6] was above 25 µM in each case. The GI50 in assay [7], in assay [8], in [9] and in [10] was above 25 µM each time. Moreover, the TGI in assay [1], in assay [2], in assay [3], in assay [4], in assay [5] and in [6] was above 25 µM throughout. Also, the TGI in [7], in assay [8], in [9] and in [10] was above 25 µM in each case.
